Entries after “also recorded” stand apart in the source; their conditions may differ. Like-named read-outs stand apart in the source and are kept apart here.
Columns and labels:
hepatitis C virus = assay: Viability of hepatitis C virus-infected SPEV cell cultures; assay type: cell-based, hepatitis C virus genotype 1b; details: 7th day after infecting (control 0)
Description: In our work we used cytopathogenic strain of hepatitis C virus belonging to geno-type 1b. The strain was isolated from the blood serum of a patient suffering from chronic viral hepatitis C, identified as hepatic C virus. Infective doses of HSV equal to 10 TCD of 50/20 μl were used in the investigation.
Cultures of reinoculated porcine embryo kidney cells (SPEV), highly sensitive to the pathogenic action of HSV, obtained from “Narva” Company (Russia) were employed. These cultures were used in the form of a one day monolayer of cells, grown in 24-cell plastic plates.
For studying the antiviral activity of the preparation, the preparation was introduced in various concentrations into the SPEV cell cultures at the moment of infection and in 24 hours after the infection with hepatitis C virus on the cell in 24-cell plastic culture plates.
The viability of the SPEV cell cultures infected and non-infected with HSV was studied on the 7th day after the infection.

HIV-1 = details: for Protection of MT-4 cells against viral cytopathic action of HIV-1: HIV-1 100 TCD50
Description: Cells Reinoculated humans lymphoblastoid cells MT-4 were used. […] The viability of the cells was determined from the color of a 0.4% solution of trypan blue.
Retrovir (azidothymidin) produced by GlaxoWellcome (Great Britain) was used as positive control.
The Antiviral activity of the preparations was investigated on a model of lymphoblastoid cells in a plastic 24-cell plate. The virus dose was 100 TCD50 (50% tissue cytopathic dose). […] The activity of the preparation was determined from the inhibition of the virus-induced cytopathic action (CPA) in the cell cultures and the virus antigen level in the culture fluid by immunoenzymatic analysis.

[1] = system: human embryo fibroblasts (M-21); assay: Cytotoxic action on non-infected M-21 cells; assay type: cell-based; details: 500 and 1000 μg/ml; 3-days follow-up
Hep 2 cells = assay: Proliferation of human epithelial carcinoma Hep 2 cells; assay type: cell-based
Description: In our experiments we used a 1 day culture of passage 14 Hep 2 cells—reinoculated cells of human epithelial carcinoma.
The growth medium contained DMEM+glutamine+antibiotics+5% FBS (fetal bovine serum). The supporting medium was DMEM/needle with a double kit of amino acids and vitamins+glutamine+antibiotics+10% of cattle serum.
The effect of such influence was most pronounced on the seventh day at the concentration of 100 μg/ml: there appeared discontinuities in the monolayer and there were many cell conglomerates in the culture medium.
The monolayer was removed from the glass plate in the 500 μl volume of the medium. The cells were precipitated from 200 μl, resuspended in a lysing buffer; electrophoresis of proteins was carried out in 12.5% PAAG with Kumashi staining.
A reduction in the intensity of protein profiles was observed on the second day and most dramatically on the seventh day at the studied concentrations of the preparation as compared with control. This can be indicative of a reduction in the number of cells because of inhibition of the mitotic activity of cells in the presence of the preparation. On the 7th day of the action of the preparation a reduction in the number of DNA compared with control was observed. Checking for the presence of DNA fragmentation has shown its absence, i.e., apoptosis manifestations were not detected.

[2] = 0.25 μg/ml, HIV-1-infected lymphoblastoid cells, 5th day
[3] = 0.5 μg/ml, HIV-1-infected lymphoblastoid cells, 5th day
[4] = 1 μg/ml, 2 hrs of contact, washing off of cells No, 6th day
[5] = 1 μg/ml, 2 hrs of contact, washing off of cells Yes, 6th day
[6] = 1.0 μg/ml, HIV-1-infected lymphoblastoid cells, 5th day
[7] = 1 μg/ml, exposure 1 hr, washing off of cells Yes, 6th day
[8] = 1 μg/ml, exposure 2 hrs, washing off of cells Yes, 6th day
[9] = 1 μg/ml, exposure 24 hrs, washing off of cells Yes, 6th day
[10] = 1 μg/ml, exposure during the entire experiment, washing off of cells No, 6th day
[11] = 10 μg/ml, 2 hrs of contact, washing off of cells No, 6th day
[12] = 10 μg/ml, 2 hrs of contact, washing off of cells Yes, 6th day
[13] = 10 μg/ml, HIV-1-infected lymphoblastoid cells, 5th day
[14] = 10 μg/ml, exposure 2 hrs (first such line, r25), washing off of cells Yes, 6th day
[15] = 10 μg/ml, exposure 2 hrs (second such line, r29), washing off of cells Yes, 6th day
[16] = 10 μg/ml, exposure 24 hrs, washing off of cells Yes, 6th day
[17] = 10 μg/ml, exposure during the entire experiment, washing off of cells No, 6th day
[18] = 100 μg/ml, HIV-1-infected lymphoblastoid cells, 5th day
[19] = preparation 1 hr after infecting, HIV-1
[20] = preparation 2 hrs before infecting, HIV-1
[21] = preparation + virus simultaneously, HIV-1

Substance: sodium salt of fullerene-polyamino-caproic acid
- Percentage of survived SPEV cells (hepatitis C virus; 6.25 μg/ml, introduced 24 hours after infecting): 0%
- Percentage of survived SPEV cells (hepatitis C virus; 6.25 μg/ml, introduced at the moment of infecting): 0%
- Percentage of survived SPEV cells (hepatitis C virus; 12.5 μg/ml, introduced 24 hours after infecting): 0%
- Percentage of survived SPEV cells (hepatitis C virus; 12.5 μg/ml, introduced at the moment of infecting): 0%
- Percentage of survived SPEV cells (hepatitis C virus; 25 μg/ml, introduced 24 hours after infecting): 0%
- Percentage of survived SPEV cells (hepatitis C virus; 25 μg/ml, introduced at the moment of infecting): 0%
- Percentage of survived SPEV cells (hepatitis C virus; 50 μg/ml, introduced 24 hours after infecting): 50%
- Percentage of survived SPEV cells (hepatitis C virus; 50 μg/ml, introduced at the moment of infecting): 75%
- Percentage of survived SPEV cells (hepatitis C virus; 100 μg/ml, introduced 24 hours after infecting): 100%
- Percentage of survived SPEV cells (hepatitis C virus; 100 μg/ml, introduced at the moment of infecting): 100%
- CPE/syncytia, % (HIV-1; [2]): 50%
- Number of cells in 1 ml × 1000 (HIV-1; [2]): 1000 in 1 ml × 1000
- CPE/syncytia, % (HIV-1; [3]): 25%
- Number of cells in 1 ml × 1000 (HIV-1; [3]): 1299 in 1 ml × 1000
- CPE/syncytia, + (HIV-1; [4]): 0 +
- Number of cells × 10^3 ml (HIV-1; [4]): 2200 × 10^3 ml
- CPE/syncytia, + (HIV-1; 1 μg/ml, 2 hrs of contact, washing off of cells No, 8th day): 0 +
- CPE/syncytia, + (HIV-1; [5]): 2.5+
- Number of cells × 10^3 ml (HIV-1; [5]): 1700 × 10^3 ml
- CPE/syncytia, + (HIV-1; 1 μg/ml, 2 hrs of contact, washing off of cells Yes, 8th day): 3.5+
- Protection of MT-4 cells against viral cytopathic action of HIV-1 (HIV-1; 1 μg/ml): full protection
- Protection of MT-4 cells against viral cytopathic action of HIV-1 (HIV-1; 1 μg/ml, listed as sodium salt of fullerene-polyamino-propanoic acid): Full protection
- CPE/syncytia, % (HIV-1; [6]): 0%
- Number of cells in 1 ml × 1000 (HIV-1; [6]): 1466 in 1 ml × 1000
- CPE/syncytia, + (HIV-1; [7]): 0.5+
- Number of cells × 10^3 ml (HIV-1; [7]): 2000 × 10^3 ml
- CPE/syncytia, + (HIV-1; 1 μg/ml, exposure 1 hr, washing off of cells Yes, 8th day): 1.5+
- CPE/syncytia, + (HIV-1; [8]): 0.5+
- Number of cells × 10^3 ml (HIV-1; [8]): 1700 × 10^3 ml
- CPE/syncytia, + (HIV-1; 1 μg/ml, exposure 2 hrs, washing off of cells Yes, 8th day): 1+
- CPE/syncytia, + (HIV-1; [9]): 0.1+
- Number of cells × 10^3 ml (HIV-1; [9]): 2100 × 10^3 ml
- CPE/syncytia, + (HIV-1; 1 μg/ml, exposure 24 hrs, washing off of cells Yes, 8th day): 0.5+
- CPE/syncytia, + (HIV-1; [10]): 0 +
- Number of cells × 10^3 ml (HIV-1; [10]): 2300 × 10^3 ml
- CPE/syncytia, + (HIV-1; 1 μg/ml, exposure during the entire experiment, washing off of cells No, 8th day): 0 +
- CPE/syncytia, + (HIV-1; [11]): 0 +
- Number of cells × 10^3 ml (HIV-1; [11]): 2600 × 10^3 ml
- CPE/syncytia, + (HIV-1; 10 μg/ml, 2 hrs of contact, washing off of cells No, 8th day): 0 +
- CPE/syncytia, + (HIV-1; [12]): 1.75+
- Number of cells × 10^3 ml (HIV-1; [12]): 1500 × 10^3 ml
- CPE/syncytia, + (HIV-1; 10 μg/ml, 2 hrs of contact, washing off of cells Yes, 8th day): 3.0+
- CPE/syncytia, % (HIV-1; [13]): 0%
- Number of cells in 1 ml × 1000 (HIV-1; [13]): 1633 in 1 ml × 1000
- CPE/syncytia, + (HIV-1; [14]): 0 +
- Number of cells × 10^3 ml (HIV-1; [14]): 2300 × 10^3 ml
- CPE/syncytia, + (HIV-1; 10 μg/ml, exposure 2 hrs (first such line, r25), washing off of cells Yes, 8th day): 0 +
- CPE/syncytia, + (HIV-1; [15]): 0 +
- Number of cells × 10^3 ml (HIV-1; [15]): 1800 × 10^3 ml
- CPE/syncytia, + (HIV-1; 10 μg/ml, exposure 2 hrs (second such line, r29), washing off of cells Yes, 8th day): 0 +
- CPE/syncytia, + (HIV-1; [16]): 0 +
- Number of cells × 10^3 ml (HIV-1; [16]): 2300 × 10^3 ml
- CPE/syncytia, + (HIV-1; 10 μg/ml, exposure 24 hrs, washing off of cells Yes, 8th day): 0 +
- CPE/syncytia, + (HIV-1; [17]): 0 +
- Number of cells × 10^3 ml (HIV-1; [17]): 2500 × 10^3 ml
- CPE/syncytia, + (HIV-1; 10 μg/ml, exposure during the entire experiment, washing off of cells No, 8th day): 0 +
- CPE/syncytia, % (HIV-1; [18]): 0%
- Number of cells in 1 ml × 1000 (HIV-1; [18]): 1500 in 1 ml × 1000
- CPE/syncytia, % (HIV-1; [19]): 0%
- Number of cells in 1 ml × 1000 (HIV-1; [19]): 1100 in 1 ml × 1000
- CPE/syncytia, % (HIV-1; [20]): 0%
- Number of cells in 1 ml × 1000 (HIV-1; [20]): 1100 in 1 ml × 1000
- CPE/syncytia, % (HIV-1; [21]): 0%
- Number of cells in 1 ml × 1000 (HIV-1; [21]): 1100 in 1 ml × 1000
- Cytodestructive action on non-infected M-21 cells [1]: has not revealed cytodestructive action
- Number of DNA compared with control (Hep 2 cells; 7th day): reduction
- Proliferation of Hep 2 cells (monolayer formation) (Hep 2 cells; 10, 50 and 100 μg/ml, most pronounced at 100 μg/ml): pronounced inhibition; also recorded: inhibits the formation of a monolayer
- Intensity of protein profiles compared with control (Hep 2 cells; second day and most dramatically seventh day, 10, 50 and 100 μg/ml): reduction
